Source: publication PMC8151276, “An Integrated Approach toward NanoBRET Tracers for Analysis of GPCR Ligand Engagement” (Molecules, 2021)

Target: T1, GNRHR (Homo sapiens, UniProt P30968)
T1 construct: purchased Promega (in-house HiBiT-GPCR construct library, NanoBRET)
T1 sequence (P30968 1-328): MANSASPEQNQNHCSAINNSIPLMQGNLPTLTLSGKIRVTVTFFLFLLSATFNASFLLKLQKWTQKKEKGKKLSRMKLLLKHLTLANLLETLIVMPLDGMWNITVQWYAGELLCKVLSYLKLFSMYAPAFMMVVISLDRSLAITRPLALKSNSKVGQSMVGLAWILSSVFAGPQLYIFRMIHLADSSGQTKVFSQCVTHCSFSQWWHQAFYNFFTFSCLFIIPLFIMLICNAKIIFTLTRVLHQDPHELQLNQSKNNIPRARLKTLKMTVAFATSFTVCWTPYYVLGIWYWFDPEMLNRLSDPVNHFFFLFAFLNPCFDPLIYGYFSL
Experiment: NanoBRET screen HiBiT-GNRHR in HEK293
Assay type: binding
Procedure: Each tracer candidate was screened across the entire library of HiBiT-GPCR constructs using NanoBRET as the detection modality. As depicted in Figure 4A, the specificity of interactions was evaluated through decrease in BRET due to competitive displacement of a bound tracer by excess parental compound. Each tracer was analyzed for binding to each HiBiT-GPCR fusion in the absence and in the presence of competing parental compound. Briefly, HEK293 cells were transfected with HiBiT-GPCR constructs diluted into promoterless DNA to reduce expression and maximize translocation to the cell surface. Each tracer candidate was then screened at concentrations of 1 μM and 0.1 μM across cells expressing these fusions. Cells were treated for 1.5 h with tracer either alone or in the presence of 20 μM competing parental compound (i.e., control). BRET was measured upon addition of purified LgBiT and subsequent complementation with HiBiT genetically fused to a GPCR. The specificity of interactions was assessed through a decrease in BRET signal due to competitive displacement of the bound tracer. To further gauge the robustness of these interactions, the fold response over the control (i.e., BRETtracer/BRETcontrol) was calculated. We chose a 1.5-fold response, which translates to ≥7-fold signal over noise as the minimal threshold required to score an interaction as positive. […]. Below we highlight the screening results obtained for our exemplary fluorescent tracers based on Clozapine, Amitriptyline and AZD1283.
HiBiT-GPCR DNA constructs were diluted in 10 mM Tris pH 8 to a final concentration of 0.01 μg/μL, arrayed in 96-well plates and stored at −20 °C. For transfection, HEK293 cells were suspended in Opti-MEM (without phenol red) supplemented with 2% fetal bovine serum (Seradigm) and 100 units/mL penicillin–streptomycin (Gibco) at a final concentration of 220,000 cells/mL and dispensed into white 96-well plates at 90 μL/well. Subsequent transfections and screens were carried using an Agilent Bravo Automated Liquid Handling Platform. First, the 96-well HiBiT DNA arrays were diluted 25-fold in Opti-MEM (without serum or phenol red) to a final concentration of 0.0004 μg/μL and 20 μL of the diluted DNAs were transferred into new 96-well plates. Next, promoterless carrier DNA (1 μg/μL) was diluted 25-fold (0.04 μg/μL) and then dispensed into the diluted arrays at 20 μL/well. Following brief mixing, Viafect transfection reagent (Promega) diluted 16-fold into Opti-MEM was dispensed into the plates at 40 μL/well. After mixing by pipetting, plates were incubated for 10 min on the pipetting station deck. The DNA-transfection reagent complexes were then added to plates containing cells. To facilitate the screen, 10 μL of DNA-transfection reagent complexes were added in duplicates to the top 4 and bottom 4 rows, resulting in two identical 48-well arrays per plate. Plates with transfected cells were incubated for 18–20 h at 37 °C/5% CO2. A screen of each tracer across the entire library using two different concentrations requires duplicate plates of transfected cells. Depending on the number of tracers being screened, transfections can be scaled up using the same ratios. The next day, for each tracer, four 20× screening solutions in tracer dilution buffer (Promega) were prepared: two duplicates at final concentration of 20 μM and two duplicates at a final concentration of 2 μM. A competing unmodified compound was added to one of each duplicate at a final concentration of 400 μM. The four resulting solutions were diluted 4-fold in Opti-MEM without serum or phenol red to generate 5× solutions (5 µM and 0.5 µM tracer +/− 100 μM competing compound). To screen the library, a BioTek MultiFlo FX liquid dispenser was used to dispense 22.5 µL of tracer solution to the top 4 rows and 22.5 µL tracer + competing compound solution to the 4 bottom rows. Plates were briefly mixed on an orbital shaker and incubated for 1.5 h at room temperature. […]

SMILES	NanoBRET Fold Response (GNRHR, tracer 0.1μM)	NanoBRET Fold Response (GNRHR, tracer 1μM)	further results
CN1CCN(C2=Nc3cc(Cl)ccc3Nc3ccc(CNC(=O)CCOCCOCCOCCOCCNC(=O)CCc4ccc5n4[B-](F)(F)[N+]4=C(c6ccc[nH]6)C=CC4=C5)cc32)CC1 [Clozapine-b-2-NB590]			NanoBRET Fold Response (GNRHR, 0.1μM tracer): 1.06; NanoBRET Fold Response (GNRHR, 1μM tracer): 1.02
CN(C)CCC=C1c2ccccc2CCc2ccc(C(=O)NCCNC(=O)CCOCCOCCOCCOCCNC(=O)CCc3ccc4n3[B-](F)(F)[N+]3=C(c5ccc[nH]5)C=CC3=C4)cc21 [Amitriptyline-b-2-NB590]			NanoBRET Fold Response (tracer at 0.1μM, listed as amitriptyline-b-2-NB590): 1.21; NanoBRET Fold Response (tracer at 1μM, listed as amitriptyline-b-2-NB590): 0.91
CCOC(=O)c1cc(C#N)c(N2CCC(C(=O)NS(=O)(=O)Cc3ccccc3/C=C/C(=O)NCCNC(=O)CCc3ccc4n3[B-](F)(F)[N+]3=C(c5ccc[nH]5)C=CC3=C4)CC2)nc1C [AZD1283-1-NB590]			NanoBRET Fold Response (GNRHR, 0.1μM): 1.09; NanoBRET Fold Response (GNRHR, 1μM): 1.08
CC(C)N(CC[C@H](c1ccccc1)c1cc(CCNC(=O)CCOCCOCCOCCOCCNC(=O)CCc2ccc3n2[B-](F)(F)[N+]2=C(c4ccc[nH]4)C=CC2=C3)ccc1O)C(C)C [Tolterodine-2-NB590]	1.23	1.15	
CC(C)N(CC[C@H](c1ccccc1)c1cc(CCNC(=O)c2ccc(CNC(=O)CCc3ccc4n3[B-](F)(F)[N+]3=C(c5ccc[nH]5)C=CC3=C4)cc2)ccc1O)C(C)C [Tolterodine-BZ-NB590]	1.03	1.07	
O=C(CCOCCOCCOCCOCCNC(=O)CCc1ccc2n1[B-](F)(F)[N+]1=C(c3ccc[nH]3)C=CC1=C2)NCCCN1CCN(C2=Nc3ccccc3Oc3ccc(Cl)cc32)CC1 [Loxapine-a-2-NB590]	1.03	0.89	
CN1CCN(C2=Nc3cc(Cl)ccc3N(CC(=O)NCCOCCOCCOCCOCCNC(=O)CCc3ccc4n3[B-](F)(F)[N+]3=C(c5ccc[nH]5)C=CC3=C4)c3ccccc32)CC1 [Clozapine-c-2-NB590]			NanoBRET Fold Response (GNRHR, 0.1μM tracer): 1.02; NanoBRET Fold Response (GNRHR, 1μM tracer): 0.99
CN(C)CCC=C1c2ccccc2CCc2ccc(C(=O)NCCNC(=O)CCOCCOCCOCCOCCNC(=O)CCc3ccc4n3[B-](F)(F)[N+]3=C(c5ccc[nH]5)C=CC3=C4)cc21 [Amitriptyline-a-2-NB590]			NanoBRET Fold Response (tracer at 0.1μM): 0.97; NanoBRET Fold Response (tracer at 1μM): 1.06
Cc1nc2n(c(=O)c1CCN1CCC(c3noc4cc(F)ccc34)CC1)CCCC2OC(=O)NCCOCCOCCOCCOCCNC(=O)CCc1ccc2n1[B-](F)(F)[N+]1=C(c3ccc[nH]3)C=CC1=C2 (stereo not shown) [Risperidone-2-NB590]	0.88	0.97	
COc1ccc2[nH]c(-c3ccc(CNC(=O)CCOCCOCCOCCOCCNC(=O)CCc4ccc5n4[B-](F)(F)[N+]4=C(c6ccc[nH]6)C=CC4=C5)cc3)c(CCNC(C)=O)c2n1 [AzomelatoninICO9-2-NB590]			NanoBRET Fold Response (0.1μM tracer): 0.61; NanoBRET Fold Response (1μM tracer): 0.98
COc1ccccc1N1CCN(CCCCN2C(=O)c3ccc(CNC(=O)CCOCCOCCOCCOCCNC(=O)CCc4ccc5n4[B-](F)(F)[N+]4=C(c6ccc[nH]6)C=CC4=C5)cc3C2=O)CC1 [NAN-190-2-NB590]	0.98	0.95	
O=C(CCc1ccc2n1[B-](F)(F)[N+]1=C(c3ccc[nH]3)C=CC1=C2)NCCOCCOCCNC(=O)OCCOCCN1CCN(C2=Nc3ccccc3Sc3ccccc32)CC1 [Quetiapine-a-2-NB590]	0.97	0.81	
O=C(CCOCCOCCOCCOCCNC(=O)CCc1ccc2n1[B-](F)(F)[N+]1=C(c3ccc[nH]3)C=CC1=C2)NCCCN1CCN(C2=Nc3cc(Cl)ccc3Nc3ccccc32)CC1 [Clozapine-a-2-NB590]			NanoBRET Fold Response (GNRHR, 0.1μM tracer): 1.02; NanoBRET Fold Response (GNRHR, 1μM tracer): 1.24
N#CN=C(NCCCOc1cccc(CN2CCCCC2)c1)NCCNC(=O)CCOCCOCCOCCOCCNC(=O)CCc1ccc2n1[B-](F)(F)[N+]1=C(c3ccc[nH]3)C=CC1=C2 [Aminopotentidine-2-NB590]	1.04	0.98	
O=C(CCc1ccc2n1[B-](F)(F)[N+]1=C(c3ccc[nH]3)C=CC1=C2)NCc1ccc(C(=O)NCCOCCOCCNCC(O)COc2cccc3ccccc23)cc1 (stereo not shown) [Propranolol-3-NB590]			NanoBRET Fold Response (GNRHR, 0.1μM): 1.12; NanoBRET Fold Response (GNRHR, 1μM): 1.03
O=C(CCc1ccc2n1[B-](F)(F)[N+]1=C(c3ccc[nH]3)C=CC1=C2)NCc1ccc(C(=O)NCCOCCC(=O)N[C@@H]2CC[C@@]3(O)[C@H]4Cc5ccc(O)c6c5[C@@]3(CCN4CC3CC3)[C@H]2O6)cc1 [Naltrexone-3-NB590]	0.90	0.99	
COc1ccccc1N1CCN(CCCCN2C(=O)c3ccc(CNC(=O)CCOCCNC(=O)c4ccc(CNC(=O)CCc5ccc6n5[B-](F)(F)[N+]5=C(c7ccc[nH]7)C=CC5=C6)cc4)cc3C2=O)CC1 [NAN-190-3-NB590]	1.14	0.97	
Cc1cc2c(s1)Nc1ccccc1N=C2N1CCN(CCCNC(=O)CCOCCOCCOCCOCCNC(=O)CCc2ccc3n2[B-](F)(F)[N+]2=C(c4ccc[nH]4)C=CC2=C3)CC1 [Olanzapine-a-2-NB590]	1.02	1.04	
CCCn1c(=O)c2[nH]c(-c3ccc(OCC(=O)NCCNC(=O)CCOCCNC(=O)c4ccc(CNC(=O)CCc5ccc6n5[B-](F)(F)[N+]5=C(c7ccc[nH]7)C=CC5=C6)cc4)cc3)nc2n(CCC)c1=O [XAC-3-NB590]	0.94	0.98	
COc1ccc2c(n1)c(CCNC(C)=O)cn2CCNC(=O)CCc1ccc2n1[B-](F)(F)[N+]1=C(c3ccc[nH]3)C=CC1=C2 [Azamelatonin-1-NB590]			NanoBRET Fold Response (0.1μM tracer): 0.96; NanoBRET Fold Response (1μM tracer): 1.06
